Data reported in ChEMBL document CHEMBL1201862, “PubChem BioAssay data set” (2004).
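Method: 48-hour compound exposure of cells in 96-well plates, five concentrations, linear interpolation of endpoints. GI50 is the concentration that inhibits growth by half.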 Active and inactive are the calls of the source. Cut-off read from the data, not from the text of the source: active = GI50 up to about 1.1 µM and inactive = higher.

Columns and labels:
Test in all cases: inhibition of tumour cell growth, NCI panel, 48 h
786-0 = tested on: 786-0
COLO 205 = tested on: COLO 205
HCT-116 = tested on: HCT-116
HCT-15 = tested on: HCT-15
HOP-62 = tested on: HOP-62
KM12 = tested on: KM12
MDA-MB-435 = tested on: MDA-MB-435
MDA-N = tested on: MDA-N
NCI-H23 = tested on: NCI-H23
NCI-H460 = tested on: NCI-H460
NCI-H522 = tested on: NCI-H522
NCI/ADR-RES = tested on: NCI/ADR-RES
OVCAR-5 = tested on: OVCAR-5
RPMI-8226 = tested on: RPMI-8226
SF-268 = tested on: SF-268
SF-539 = tested on: SF-539
SK-MEL-2 = tested on: SK-MEL-2
SN12C = tested on: SN12C
SNB-19 = tested on: SNB-19
U-251 = tested on: U-251

| SMILES | GI50 (786-0) | GI50 (COLO 205) | GI50 (HCT-116) | GI50 (HCT-15) | GI50 (HOP-62) | GI50 (KM12) | GI50 (MDA-MB-435) | GI50 (MDA-N) | GI50 (NCI-H23) | GI50 (NCI-H460) | GI50 (NCI-H522) | GI50 (NCI/ADR-RES) | GI50 (OVCAR-5) | GI50 (RPMI-8226) | GI50 (SF-268) | GI50 (SF-539) | GI50 (SK-MEL-2) | GI50 (SN12C) | GI50 (SNB-19) | GI50 (U-251) |
| --- | --- | --- | --- | --- | --- | --- | --- | --- | --- | --- | --- | --- | --- | --- | --- | --- | --- | --- | --- | --- |
| Cc1ccc2[nH]/c(=N/S(=O)(=O)c3cc(C)c(Cl)cc3S)[nH]c2c1 | 45.9 µM (inactive) | 58.5 µM (inactive) | 46.6 µM (inactive) | 67.9 µM | 34.8 µM (inactive) | 41.6 µM (inactive) | 28.4 µM (inactive) | 87.5 µM (inactive) | 66.2 µM (inactive) | 16.4 µM (inactive) | > 100 µM (inactive) | > 100 µM (inactive) | > 100 µM (inactive) | 40 µM (inactive) | 39.8 µM (inactive) | 74.3 µM (inactive) | 78.3 µM (inactive) | > 100 µM (inactive) | 36.3 µM (inactive) | 24 µM (inactive) |
| O=C(O)C(Cc1c[nH]c2ccccc12)N1C(=O)c2ccccc2C1=O (stereo not given) | > 100 µM (inactive) | > 100 µM (inactive) | > 100 µM (inactive) | > 100 µM | > 100 µM (inactive) | > 100 µM (inactive) | > 100 µM (inactive) | > 100 µM (inactive) | > 100 µM (inactive) | > 100 µM (inactive) | > 100 µM (inactive) | > 100 µM (inactive) | > 100 µM (inactive) | > 100 µM (inactive) | > 100 µM (inactive) | > 100 µM (inactive) | > 100 µM (inactive) | > 100 µM (inactive) | > 100 µM (inactive) | > 100 µM (inactive) |
| COc1cc2c(cc1OC)-c1cc3cc(OC)c(OC)cc3c(C)[n+]1CC2.O=C([O-])CS(=O)(=O)O | > 100 µM (inactive) | 31.6 µM (inactive) | 73.5 µM (inactive) | > 100 µM | > 100 µM (inactive) | 26.3 µM (inactive) | 76.4 µM (inactive) | 89.3 µM (inactive) | 35.4 µM (inactive) | 13.8 µM (inactive) | 6.78 µM (inactive) | > 100 µM (inactive) | > 100 µM (inactive) | > 100 µM (inactive) | 0.975 µM (active) | 76.6 µM (inactive) | > 100 µM (inactive) | 37.6 µM (inactive) | 41.7 µM (inactive) | 15 µM (inactive) |
| CCCCn1cc(C(=O)O)c(=O)c2c3sccc3ccc21 | > 100 µM (inactive) | > 100 µM (inactive) | > 100 µM (inactive) | 47 µM | > 100 µM (inactive) | > 100 µM (inactive) | > 100 µM (inactive) | > 100 µM (inactive) | > 100 µM (inactive) | > 100 µM (inactive) | > 100 µM (inactive) | 19.9 µM (inactive) | > 100 µM (inactive) | > 100 µM (inactive) | > 100 µM (inactive) | > 100 µM (inactive) | > 100 µM (inactive) | > 100 µM (inactive) | > 100 µM (inactive) | 6.73 µM (inactive) |
| O=C(O)CCC(=O)c1ccc2sc3ccccc3c2c1 | > 100 µM (inactive) | > 100 µM (inactive) | > 100 µM (inactive) | > 100 µM | > 100 µM (inactive) | > 100 µM (inactive) | > 100 µM (inactive) | > 100 µM (inactive) | > 100 µM (inactive) | > 100 µM (inactive) | > 100 µM (inactive) | > 100 µM (inactive) | > 100 µM (inactive) | > 100 µM (inactive) | > 100 µM (inactive) | > 100 µM (inactive) | > 100 µM (inactive) | > 100 µM (inactive) | > 100 µM (inactive) | > 100 µM (inactive) |
| O=C1c2c(O)cccc2C(C2OC(CO)C(O)C(O)C2O)c2cc(CO)cc(O)c21 (stereo not given) | > 100 µM (inactive) | > 100 µM (inactive) | > 100 µM (inactive) | > 100 µM | > 100 µM (inactive) | > 100 µM (inactive) | > 100 µM (inactive) | > 100 µM (inactive) | > 100 µM (inactive) | > 100 µM (inactive) | > 100 µM (inactive) | > 100 µM (inactive) | > 100 µM (inactive) | > 100 µM (inactive) | > 100 µM (inactive) | > 100 µM (inactive) | > 100 µM (inactive) | > 100 µM (inactive) | > 100 µM (inactive) | > 100 µM (inactive) |
| O=C1N[C@@H]2c3c(Br)sc(Br)c3C(=O)[C@@H]2N1 | 2.41 µM (inactive) | 3.78 µM (inactive) | 1.89 µM (inactive) | 3.16 µM | 6.65 µM (inactive) | 5.28 µM (inactive) | 2.1 µM (inactive) | 2.08 µM (inactive) | 4.43 µM (inactive) | 6.44 µM (inactive) | 5.04 µM (inactive) | 15.4 µM (inactive) | 17.2 µM (inactive) | 3.05 µM (inactive) | 3.33 µM (inactive) | 2.52 µM (inactive) | 4.82 µM (inactive) | 4.22 µM (inactive) | 11.3 µM (inactive) | 2.53 µM (inactive) |
